Test results as given in patent US10010541B2, “Modulation of tissue transglutaminase activation in disease” (The Board of Trustees of the Leland Stanford Junior …, priority 2014, dated 2018).

What was measured:
[1] = biological target: T1, TG2 (Homo sapiens, UniProt P21980); test: glutamate dehydrogenase-coupled deamidation assay, substrate Cbz-Gln-Gly; format: biochemical; settings: irreversible inhibition model, full progress curves
T1 sequence (P21980 1-687): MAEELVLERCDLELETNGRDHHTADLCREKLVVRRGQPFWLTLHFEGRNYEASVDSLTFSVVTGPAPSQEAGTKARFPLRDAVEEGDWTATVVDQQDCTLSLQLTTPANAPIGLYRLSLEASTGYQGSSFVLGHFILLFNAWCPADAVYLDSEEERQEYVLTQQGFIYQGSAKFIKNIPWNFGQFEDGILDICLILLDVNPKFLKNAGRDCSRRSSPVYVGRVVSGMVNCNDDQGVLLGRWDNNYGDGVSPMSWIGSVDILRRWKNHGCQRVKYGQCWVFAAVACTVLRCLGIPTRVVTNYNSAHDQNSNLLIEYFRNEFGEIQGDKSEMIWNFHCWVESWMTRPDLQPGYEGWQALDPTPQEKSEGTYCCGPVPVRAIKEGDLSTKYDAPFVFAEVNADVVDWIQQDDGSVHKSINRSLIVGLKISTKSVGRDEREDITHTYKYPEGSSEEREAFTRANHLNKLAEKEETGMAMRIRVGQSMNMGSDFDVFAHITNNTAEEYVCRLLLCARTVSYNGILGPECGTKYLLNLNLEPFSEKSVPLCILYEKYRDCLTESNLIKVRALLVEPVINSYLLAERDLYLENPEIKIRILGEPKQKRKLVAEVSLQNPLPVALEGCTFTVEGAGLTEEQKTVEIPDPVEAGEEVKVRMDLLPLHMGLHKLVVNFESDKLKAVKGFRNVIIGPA

[2] = biological target: T2, TG1 (Homo sapiens, UniProt P22735); test: glutamate dehydrogenase-coupled deamidation assay, substrate Cbz-Gln-Ser; format: biochemical; settings: irreversible inhibition model, full progress curves
T2 sequence (P22735 1-817): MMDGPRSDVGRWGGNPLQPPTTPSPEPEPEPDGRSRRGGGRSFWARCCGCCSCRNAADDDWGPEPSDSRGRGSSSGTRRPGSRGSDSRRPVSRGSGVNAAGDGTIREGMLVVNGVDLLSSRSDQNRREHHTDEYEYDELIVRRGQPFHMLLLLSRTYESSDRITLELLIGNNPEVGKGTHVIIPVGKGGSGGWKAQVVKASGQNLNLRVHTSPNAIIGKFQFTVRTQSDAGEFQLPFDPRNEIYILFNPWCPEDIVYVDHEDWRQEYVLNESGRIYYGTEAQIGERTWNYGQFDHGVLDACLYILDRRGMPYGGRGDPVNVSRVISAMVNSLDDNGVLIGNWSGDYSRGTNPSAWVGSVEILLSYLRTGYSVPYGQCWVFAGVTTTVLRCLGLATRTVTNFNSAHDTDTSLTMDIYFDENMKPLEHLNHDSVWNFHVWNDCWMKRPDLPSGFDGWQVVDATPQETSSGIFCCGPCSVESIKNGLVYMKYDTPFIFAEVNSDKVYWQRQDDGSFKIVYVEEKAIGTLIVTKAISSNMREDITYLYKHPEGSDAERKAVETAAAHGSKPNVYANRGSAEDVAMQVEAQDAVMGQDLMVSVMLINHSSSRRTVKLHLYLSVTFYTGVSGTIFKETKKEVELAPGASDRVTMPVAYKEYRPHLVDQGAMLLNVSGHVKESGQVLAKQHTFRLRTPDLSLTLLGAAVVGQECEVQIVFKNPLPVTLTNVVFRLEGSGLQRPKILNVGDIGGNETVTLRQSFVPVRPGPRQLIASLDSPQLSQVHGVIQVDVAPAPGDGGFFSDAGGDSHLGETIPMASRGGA

kinh/Ki TG2 [1]: 1800 M⁻¹ s⁻¹ | kinh/Ki TG1 [2]: 333 M⁻¹ s⁻¹
Structure (SMILES): O=C(N[C@@H]1C[C@@H](C(=O)NC[C@@H]2CC(Br)=NO2)N(C(=O)OCc2cnc3ccccc3c2)C1)c1cccnc1 [Compound 5, (2S,4R)-quinolin-3-ylmethyl 2-((((S)-3-bromo-4,5-dihydroisoxazol-5-yl)methyl)carbamoyl)-4-(nicotinamido)pyrrolidine-1-carboxylate]
